Experimental data published in publication PMC5158083 (PLoS Pathogens, 2016).
Values joined by “and” are separate entries in the source; they are usually repeats but may differ in a detail not shown here. Identical values can stand only once. Non-standard residues stand in square brackets, D forms with d. Residues, ends and D or L forms follow the SMILES beside them. *: point of attachment. Sta = CC(C)C[C@H](N)[C@@H](O)CC(=O)O; Isovaleryl = CC(C)CC(=O)*

Assays:
[1] = tested on: peptidase activity in DMEM conditioned media; experiment: Class-specific peptidase inhibitors on IQ substrate cleavage by DMEM conditioned media; format: biochemical, Cryptococcus neoformans; settings: 1 mM 1-10-phenanthroline
Procedure: (§1) Although peptidase activity was evident under both culture conditions, differential substrate cleavage reflected differences in specificity. […] Adjustment of YNB supernatants from pH 5.0 to 7.4 (the pH of DMEM media) yielded only very low levels of any peptidase activity, while lowering the pH of DMEM supernatants from 7.4 to pH 5.0 produced a peptidase activity pattern similar to YNB media (S1 Fig).
(§2) Assays were conducted at room temperature on a Biotek Synergy H4 plate reader in a 50 μl volume using 96-well round bottom, polystyrene plates (Corning) with λex 328 nm λem 393 nm unless otherwise stated. Substrates were each 7 or 8 amino acids with 7-methoxycoumarin-4-acetic acid or 7-methoxycoumarin-4-yl-acetyl-L-lysine on the amino terminus, and at the carboxyl terminus 4-dinitrophenyl-L-lysine or 4-dinitrophenyl bound directly to the carboxyl terminus as indicated (For sequences see S1 Table). Substrates were assayed at a 10 μM final concentration from DMSO stocks. […]
(§3) Supplementary file ppat.1006051.s001.pdf: S1 Fig Fluorogenic assays indicate the endopeptidase class present in conditioned media and the optimal pH for detection of activity. […] The activity scale is differs for this experiment because this assay was conducted on a SpectraMax Gemini plate reader (Molecular Devices) although conditions were otherwise equivalent. […]

[2] = tested on: peptidase activity in YNB conditioned media; experiment: Class-specific peptidase inhibitors on IQ substrate cleavage by YNB conditioned media; format: biochemical, Cryptococcus neoformans; settings: 1 µM pepstatin
Procedure: as §1, §2, §3

May1 = target: T1, May1 (Cryptococcus neoformans, UniProt J9VS02); experiment: May1 inhibition, fluorogenic IQ-2 assay (screen and IC50); format: biochemical; settings: for IC50: 14.6 nM May1, 10 μM IQ-2, 100 mM MES 100 mM NaCl pH 4.5, 10 min preincubation, read-out: IC50 against May1
T1 construct: endogenous in cells; host or cells: wild-type C. neoformans H99, 32-hour YNB culture supernatant, enriched on HiTrap DEAE
T1 sequence (J9VS02 99-455 limits assumed): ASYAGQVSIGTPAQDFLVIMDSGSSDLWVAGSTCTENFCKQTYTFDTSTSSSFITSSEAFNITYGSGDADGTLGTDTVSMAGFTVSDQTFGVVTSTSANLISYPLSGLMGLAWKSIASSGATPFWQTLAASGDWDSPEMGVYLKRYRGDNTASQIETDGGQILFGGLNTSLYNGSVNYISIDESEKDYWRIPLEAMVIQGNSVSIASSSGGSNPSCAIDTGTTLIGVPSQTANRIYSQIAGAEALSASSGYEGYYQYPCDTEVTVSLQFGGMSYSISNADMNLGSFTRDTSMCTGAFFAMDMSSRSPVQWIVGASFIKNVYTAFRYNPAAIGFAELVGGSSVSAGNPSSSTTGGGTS
Procedure: Assays were conducted at room temperature on a Biotek Synergy H4 plate reader in a 50 μl volume using 96-well round bottom, polystyrene plates (Corning) with λex 328 nm λem 393 nm unless otherwise stated. Substrates were each 7 or 8 amino acids with 7-methoxycoumarin-4-acetic acid or 7-methoxycoumarin-4-yl-acetyl-L-lysine on the amino terminus, and at the carboxyl terminus 4-dinitrophenyl-L-lysine or 4-dinitrophenyl bound directly to the carboxyl terminus as indicated (For sequences see S1 Table). Substrates were assayed at a 10 μM final concentration from DMSO stocks. Biotek Gen5 software was used to calculate initial velocities in relative fluorescent units per second (RFU/sec) from 20 points over the linear portion of each assay. To assay activity, YNB conditioned media was adjusted to pH 4.5 using 100 mM MES, 100 mM NaCl buffer, […] at a final concentration of 26 mM MES, 26 mM NaCl, unless otherwise stated. Conditioned DMEM media was first buffer exchanged into PBS using a centrifugal filter unit with a 3 kDa cutoff (Millipore) before use. The peptidase inhibitors pepstatin A, 1-10-phenanthroline, AEBSF and E64 were dissolved in DMSO and were obtained from Sigma-Aldrich.
To concentrate secreted May1, YNB conditioned media was prepared as described above from 32-hour cultures of wild-type C. neoformans. The media was then diluted 2.7-fold into buffer A (50 mM Tris base pH 8), chosen to increase the pH in order to limit May1 autoproteolysis, dilute salts in the media (final conductivity ~6%), and confer a negative charge to the peptidase domain. The media was then loaded onto a 1 ml HiTrap DEAE fast flow column (GE Healthcare) using a fast protein liquid chromatography system with a flow rate of 1.5 ml/min. May1 was eluted using a 30 minute linear gradient of 0–100% buffer B (50 mM Tris base, 1 M NaCl, pH 8). Active fractions were determined by measuring activity using the substrate IQ-2. They were then combined and approximate May1 concentration determined by active-site titration.
Published methods were followed with minor modifications.
IC50 calculations were conducted using 14.6 nM May1 (100 mM MES 100 mM NaCl pH 4.5). Inhibitor stocks were dissolved in DMSO and incubated with May1 for 10 minutes before addition of substrate. GraphPad Prism 6 was used to calculate IC50 values from a plot of the log of inhibitor concentration versus normalized response.

may1Δ C. neoformans = experiment: Culture density of may1Δ strain in YNB treated with May1 inhibitors; format: cell-based, Cryptococcus neoformans; settings: YNB cultures
Procedure: Average values and S.D. of triplicate measurements are shown. (B) Density at saturation (after 48 hours of growth) is shown for YNB cultures of wild type or may1Δ C. neoformans treated with May1 inhibitors. Average values and S.D. of triplicates are shown.

wild type C. neoformans = experiment: Culture density at saturation (OD600) of wild type C. neoformans in YNB treated with May1 inhibitors; format: cell-based, Cryptococcus neoformans; settings: 2 μM pepstatin A
Procedure: Fig 5 May1 activity is required for wild-type growth at acidic pH. (A) Culture density was recorded over time by measuring OD600 of cultures grown in YNB. The average density and S.D. of triplicates are shown. (B) Culture density of wild-type C. neoformans grown in YNB containing 2 μM pepstatin A was recorded. Mock indicates DMSO treatment. The average and S.D. of cultures grown in triplicate are shown. (C) Mutant characterization assays were conducted using YNB agar plates. Cultures were adjusted to an OD600 of 5 and then spotted in 10-fold serial dilutions on plates. (D) Full rescue of may1Δ saturation density in YNB was observed after buffering to pH 6.5. Average density and S.D. of triplicates are shown.
Next, we selected the two best in vitro hits to test their potency in culture relative to pepstatin A by measuring inhibition of May1 and restriction of culture growth using fluorogenic assays and OD600 respectively. […] None of the three compounds affected the culture density of a may1Δ strain, consistent with the idea that May1 is the compounds’ relevant target in this context (S11 Fig). […] However, additional medicinal chemistry efforts are necessary for in vivo applications. Therefore, subsequent studies investigating the role of May1 in virulence were carried out using deletion strains of this enzyme. […]

Structure (SMILES)	sensitivity of IQ substrate cleavage by DMEM conditioned media to inhibitor [1]	sensitivity of IQ substrate cleavage by conditioned YNB media to inhibitor [2]	IC50 (May1)	inhibition of proteolysis of IQ-2 by enriched May1 (May1; May1 enriched from YNB conditioned media)	effect on culture density of may1Δ cells (may1Δ C. neoformans)	saturation density of wild type cultures in YNB (wild type C. neoformans)	reduction of May1 activity (May1; 1 μM inhibitor, substrate IQ-2) [%]
c1cnc2c(c1)ccc1cccnc12 [1-10-phenanthroline]	sensitive						
CC(C)CC(=O)N[C@H](C(=O)N[C@H](C(=O)N[C@@H](CC(C)C)[C@@H](O)CC(=O)N[C@@H](C)C(=O)N[C@@H](CC(C)C)[C@@H](O)CC(=O)O)C(C)C)C(C)C [Pepstatin A, pepstatin A] (Isovaleryl-VV[Sta]A[Sta]-OH)		sensitive	1.4 nM	fully inhibited	no effect	saturation density defect equivalent to that observed for the MAY1 deletion strains	
Cc1nc(COc2ccc(C[C@H](NC(=O)O[C@H]3CO[C@H]4OCC[C@H]43)[C@H](O)CN(CC(C)C)S(=O)(=O)c3ccc4c(c3)OCO4)cc2)cs1 [Brecanavir]			352 nM and ~352 nM				80
